For ten molecules, IC50, Ki and Kd results are on record in article PMC8957989, “Binding Affinity Characterization of Four Antennae-Enriched Odorant-Binding Proteins From Harmonia axyridis (Coleoptera: Coccinellidae)” (Frontiers in Physiology, 2022).

Read-outs that look alike come from different tables or passages of the source.

The target in one assay is HaxyOBP3 (Harmonia axyridis, UniProt A0A8K1AM44). Briefly: Competitive fluorescence binding assay (bis-ANS probe). The following applies: recombinant protein and bis-ANS at 2 μM, Tris-HCl 50 mM pH 7.4; for Ki: Ki = [IC50]/(1 + [bis-ANS]/Kbis-ANS). On the procedure:
(§1) The positive plasmid was then transformed into BL21 (DE3) cells for the expression of recombinant proteins, and proteins induced with 0.5 mmol/L isopropyl β-D-1-thiogalactopyranoside (IPTG) for 4 h at 37°C (HaxyOBP3) or 16 h at 15°C (HaxyOBP5, 12, and 15). […] Inclusion bodies were denatured by 8 M urea.
(§2) Protein purification was performed with His-Tag Purification Resin column (Genscript Biology Company, Nanjing, Jiangsu, China) and purified by gradient imidazole buffer (20, 50, 100, 250, and 500 mmol·L^−1). The purity and size of proteins were detected by SDS-PAGE, and concentrations of proteins were measured with bicinchoninic acid (BCA) Protein Assay Kit (ThermoFisher Scientific-Life Technologies, Carlsbad, CA, United States).
(§3) A Cary Eclipse Fluorescence Spectrophotometer (Agilent Technologies, United States) was used to determine the results of the binding assay. N-phenyl-1-naphthylamine (1-NPN) for HaxyOBP15 and 4,4′-Dianilino-1,1′-binaphthyl-5,5′-disulfonic acid dipotassium salt (bis-ANS) for HaxyOBP3, 5, and 12 were chosen as the fluorescent probe.

The next assay deals with HaxyOBP12 (Harmonia axyridis, UniProt A0A8K1AMY0). Described as above. The following applies: recombinant protein and bis-ANS at 2 μM, Tris-HCl 50 mM pH 7.4; for Ki: Ki = [IC50]/(1 + [bis-ANS]/Kbis-ANS). As to the method: as §1, §2, §3
Chain of HaxyOBP12 (A0A8K1AMY0 entry or part of it): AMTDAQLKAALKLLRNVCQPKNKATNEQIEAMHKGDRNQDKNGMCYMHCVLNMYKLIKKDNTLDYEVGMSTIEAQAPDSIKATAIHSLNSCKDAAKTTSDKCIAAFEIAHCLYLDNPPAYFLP
The next assay addresses HaxyOBP5 (Harmonia axyridis, UniProt A0A8J9RUK3). The description is as above. The conditions noted are these: for Ki: Ki = [IC50]/(1 + [bis-ANS]/Kbis-ANS). As to the method:
as §1, §2, §3

Assay [1] concerns the target T1, HaxyOBP15 (Harmonia axyridis, UniProt A0A8K1AM29). In words: Competitive fluorescence binding assay (1-NPN probe). The following applies: for Ki: Ki = [IC50]/(1 + [1-NPN]/K1-NPN). On the procedure:
as §1, §2, §3

The target of assay [2] is T1, HaxyOBP15. Briefly: Fluorescent probe binding (titration of protein with probe). The conditions noted are these: probe titrated to 2-16 μM, Tris-HCl 50 mM pH 7.4; read-out: dissociation constant of probe with HaxyOBP15. On the procedure: A Cary Eclipse Fluorescence Spectrophotometer (Agilent Technologies, United States) was used to determine the results of the binding assay. N-phenyl-1-naphthylamine (1-NPN) for HaxyOBP15 and 4,4′-Dianilino-1,1′-binaphthyl-5,5′-disulfonic acid dipotassium salt (bis-ANS) for HaxyOBP3, 5, and 12 were chosen as the fluorescent probe. The excitation wavelength was 337 nm of 1-NPN and 295 nm of bis-ANS, and the emission spectrum was recorded between 350 and 500 nm for 1-NPN and between 300 and 550 nm for bis-ANS. The recombinant proteins prepared in Tris–HCl (50 mM, pH 7.4) was titrated with aliquots of 1 mM 1-NPN or bis-ANS to final concentrations ranging from 2 to 16 μM to measure the binding affinity. To further measure the binding affinity of ligands to HaxyOBPs, proteins and fluorescent probe at 2 μM were titrated with aliquots of 1 mM odorants. The binding constant (K1-NPN/bis-ANS) of 1-NPN or bis-ANS to HaxyOBPs was calculated by GraphPad Prism 5 software (GraphPad Software Inc.) with the equation Ki = [IC50]/(1 + [1-NPN]/K1-NPN) or [IC50]/(1 + [bis-ANS]/Kbis-ANS), where [1-NPN]/[bis-ANS] is the free concentration of 1-NPN/bis-ANS, and K1-NPN/Kbis-ANS is the dissociation constant of the protein/1-NPN (bis-ANS).

Setting [3] is: HaxyOBP5 Ki, recombinant protein and bis-ANS at 2 μM, Tris-HCl 50 mM pH 7.4.
[4] abbreviates: recombinant protein and 1-NPN at 2 μM, Tris-HCl 50 mM pH 7.4.
Where [5] appears, read: recombinant protein and 1-NPN at 2 μM, Tris-HCl 50 mM pH 7.4, read-out: HaxyOBP15 IC50.

T1 sequence (A0A8K1AM29 entry or part of it): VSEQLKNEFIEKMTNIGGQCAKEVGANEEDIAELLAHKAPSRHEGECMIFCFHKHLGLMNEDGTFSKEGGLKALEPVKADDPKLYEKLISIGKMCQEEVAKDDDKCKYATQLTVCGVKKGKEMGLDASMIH
Chain of HaxyOBP5 (A0A8J9RUK3 entry or part of it): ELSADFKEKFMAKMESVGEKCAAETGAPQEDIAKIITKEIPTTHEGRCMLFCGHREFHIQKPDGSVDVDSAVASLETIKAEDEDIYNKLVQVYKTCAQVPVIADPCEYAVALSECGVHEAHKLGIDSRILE
Chain of HaxyOBP3 (A0A8K1AM44 entry or part of it): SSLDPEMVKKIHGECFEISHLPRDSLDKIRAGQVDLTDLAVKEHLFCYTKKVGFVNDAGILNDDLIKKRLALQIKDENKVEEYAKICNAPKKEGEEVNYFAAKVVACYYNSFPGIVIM

In general, IC50 refers to the concentration that gives 50% inhibition. The term Ki denotes the dissociation constant of the complex between target and ligand, obtained from inhibition or displacement. As for `CC(=O)/C=C/C1=C(C)CCCC1(C)C` [β-Ionone], the IC50 amounted to 25.9 ± 2.85 µM at HaxyOBP3, 24 ± 1.56 µM at HaxyOBP12, 17.8 ± 1.52 µM at HaxyOBP5 and 6.99 ± 0.21 µM at HaxyOBP15 [1]. Besides, the Ki stood at 18.8 ± 2.14 µM at HaxyOBP3, 15.2 ± 1.06 µM at HaxyOBP12 and 11.7 ± 0.86 µM at HaxyOBP5 (setting [3]).

Turning to `COC(=O)c1ccccc1O` [Methyl salicylate], the Ki on HaxyOBP5 (setting [3]) came out at 11.7 µM; on HaxyOBP5 (recombinant protein and bis-ANS at 2 μM, Tris-HCl 50 mM pH 7.4, read-out: HaxyOBP5 Ki), 18.1 ± 1.33 µM. In addition, on HaxyOBP5 (recombinant protein and bis-ANS at 2 μM, Tris-HCl 50 mM pH 7.4, read-out: HaxyOBP5 IC50), the IC50 worked out at 26.4 ± 1.96 µM.

`C=CC(C)(CCC=C(C)C)OC(C)=O` (stereo not drawn) [Linalyl acetate] yielded an IC50 at HaxyOBP15 [1] of 40 ± 2.91 µM.

Turning to `CCCCCCCCC=O` [Nonyl aldehyde], the inhibitory constant (Ki) at HaxyOBP15 [1] (setting [4]) is 29.6 ± 1.86 µM. At HaxyOBP15 [1] (setting [5]), the IC50 worked out at 38.5 ± 2.03 µM.

For the molecule `c1ccc(Nc2cccc3ccccc23)cc1` [1-NPN, N-phenyl-1-naphthylamine], the Kd at HaxyOBP15 [2] was 5.07 ± 0.31 µM.

`CC(=O)OC/C=C(\C)CCC=C(C)C` [Geranyl acetate]: the Ki on HaxyOBP15 [1] (setting [4]) turned out to be 23.4 ± 3.04 µM. Also, the IC50 on HaxyOBP15 [1] (setting [5]) amounted to 30.3 ± 3.58 µM.

Regarding `COc1ccc(C=O)cc1` [p-Anisaldehyde], the IC50 on HaxyOBP3 turned out to be 34.1 ± 1.06 µM; at HaxyOBP12 it was 25.5 ± 1.99 µM; at HaxyOBP5 it was 19.9 ± 0.7 µM. The Ki at HaxyOBP3 stood at 24.4 ± 0.37 µM; on HaxyOBP12 it was 16.1 ± 1.21 µM; on HaxyOBP5 (setting [3]) it was 13.4 ± 0.67 µM.

With `C=CC(=C)CC/C=C(\C)CCC=C(C)C` [(E)-β-Farnesene], the Ki at HaxyOBP15 [1] (setting [4]) stood at 4.33 ± 0.4 µM. Also, the IC50 on HaxyOBP15 [1] (setting [5]) came out at 5.81 ± 0.46 µM.

As to `CC(=O)/C=C/C1C(C)=CCCC1(C)C` (stereo not drawn) [α-Ionone], the IC50 on HaxyOBP15 [1] came to 12 ± 0.56 µM.

On to `CC(=O)CCC1=C(C)CCCC1(C)C` [Dihydro-β-ionone], for which the Ki at HaxyOBP15 [1] (setting [4]) is 24 ± 2.65 µM. Also, the IC50 at HaxyOBP15 [1] (setting [5]) came to 30.9 ± 3.01 µM.
